The subject of data set [1] is intracellular BCG. Nature of the data set: microbe, parasite or virus in culture. Conditions: Mycobacterium tuberculosis variant bovis BCG, read-out: Activity on intracellular BCG (% inhibition). In kind it is cell-based.
Data set [2] can be described thus: Human liver microsome assay. The format is in vitro ADME. Conditions: for half-life: human liver microsomes; for Stability in human liver microsomal studies: result in words.
Source text: (§1) Because the murine model will be used for initial drug efficacy studies and our goal is to develop drugs for human use, in vitro liver microsomal studies we performed using both mouse and human liver microsomes.
Data set [3] concerns intracellular Mtb. Nature of the data set: Inhibition of Mtb growth inside primary human monocytes (3H-Uridine). In kind it is cell-based. Conditions: Mycobacterium tuberculosis, Monocyte, all drugs tested at 20 μM. The method, then:
FIGS. 1A & 1B show the structure and anti-mycobacterial activity of select troponoids. Shown are the structures (FIG. 1A) and calculated percent inhibitions of M. tuberculosis (Mtb) growth inside primary human monocytes by 4 selected troponoids (FIG. 1B).
Numerous troponoids have been synthesized and screened on Mtb and MAC and identified three with activities at a concentration of ≤5 μM. […] Briefly, primary monocytes were infected with mycobacteria (Mtb) for 4 hours, then co-cultured with indicated troponoids (2.5-20 μM) for 3 days. Then mammalian cells were lysed with saponin and residual mycobacteria quantified via ^3H-Uridine as previously described (Abate et al. 2015).

Data set [4] concerns Caco2. Nature of the data set: Caco2 in vitro permeability assay. Conditions: for Caco2 PappA > B: apical to basolateral; for Caco2 PappB > A: basolateral to apical; for GI absorption by Caco-2 in vitro testing: result in words.
Data set [5] in a line: Caco2 in vitro permeability assay. Conditions: human, Caco-2. On the technique in general: Passage across Caco-2 layers is used to estimate intestinal permeability.
Data set [6] is described as follows: Mouse liver microsome stability. In kind it is in vitro ADME. Conditions: result in words. In general terms: Microsomes from liver hold many membrane-bound enzymes, among them those of drug oxidation.
Source text: as §1

Consider `CCCCSc1cccc(O)c(=O)c1O` [#693], for which the inhibition at 20 µM in data set [1] came to 89.2%.

As for `CCCCSc1ccc(SCCCC)c(O)c(=O)c1O` [#694], in data set [1], the inhibition at 20 µM turned out to be 91.8%. In addition, in data set [2], the half-life worked out at 9.8 min and the “Stability in human liver microsomal studies” value is reported as “stable”. In data set [3], this compound displayed an inhibition at 20 µM of 86.5%. Moreover, in data set [4], the “Caco2 PappA > B” value was 5.83E−06 sec*cm^2, the “Caco2 PappB > A” value came to 1.11E−04 sec*cm^2 and the “GI absorption by Caco-2 in vitro testing” value was “good GI absorption”. Moreover, the efflux ratio in data set [5] amounted to 19. Besides, in data set [6], the “Stability in mice liver microsomal studies” value is reported as “stable”.

On to `Cc1ccc(S(=O)(=O)c2cccc(O)c(=O)c2O)cc1` [#697], for which the inhibition at 20 µM in data set [1] worked out at 0%.

For the compound `CCCCCCS(=O)(=O)c1cccc(O)c(=O)c1O` [#699], the inhibition at 20 µM in data set [1] was 0%.

Turning to `O=c1c(O)cccc(S)c1O` [#701], in data set [1], the inhibition at 20 µM came out at 38.8%.

Take `Cc1cc(O)c(=O)c(O)cc1C(=O)N1CCSC1` [#712]: the inhibition at 20 µM in data set [1] came out at 32.1%.

`COc1ccc(-c2ccccc(N)c2=O)cc1` [#762]: in data set [1], the inhibition at 20 µM was 10.8%.

Consider `CCn1cc(C(=O)O)c(=O)c2cc(F)c(N3CCN(c4cccccc4=O)CC3)cc21` [#764], for which the inhibition at 20 µM in data set [1] came out at 14.5%.

As to `O=c1cccccc1N1CCOCC1` [#765], the inhibition at 20 µM in data set [1] was found to be 24.3%.

For the compound `O=c1cccccc1N1CCCC1` [#766], the inhibition at 20 µM in data set [1] was 14%.

Turning to `CCS(=O)(=O)N1CCN(C(=O)c2cc(O)c(=O)c(O)cc2C)CC1` [#802], the inhibition at 20 µM in data set [1] came to 0%.

`Cc1ccc(Sc2cccc(O)c(=O)c2O)cc1` [#838]: the inhibition at 20 µM in data set [1] was 29.3%.

`CCCCCCSc1cccc(O)c(=O)c1O` [#840]: the inhibition at 20 µM in data set [1] stood at 74.7%. Moreover, in data set [2], the half-life is > 30 min and the “Stability in human liver microsomal studies” value is given as “stable”. This compound also had an inhibition at 20 µM in data set [3] of 89.4%. Moreover, in data set [4], the “Caco2 PappA > B” value worked out at 1.45E−05 sec*cm^2, the “Caco2 PappB > A” value worked out at 2.11E−04 sec*cm^2 and the “GI absorption by Caco-2 in vitro testing” value is on record as “good GI absorption”. For the same compound, the efflux ratio in data set [5] amounted to 14.6. Further, the “Stability in mice liver microsomal studies” value in data set [6] is given as “stable”.

Turning to `CCCCCCSc1ccc(SCCCCCC)c(O)c(=O)c1O` [#841], the inhibition at 20 µM in data set [1] is 83.5%. Also, in data set [2], the half-life came to 7 min and the “Stability in human liver microsomal studies” value is reported as “stable”. In data set [3], this compound yielded an inhibition at 20 µM of 91.5%. In data set [4], the “Caco2 PappA > B” value was 3.08E−06 sec*cm^2, the “Caco2 PappB > A” value stood at 5.18E−06 sec*cm^2 and the “GI absorption by Caco-2 in vitro testing” value is on record as “good GI absorption”. For the same compound, the efflux ratio in data set [5] was 1.7. The “Stability in mice liver microsomal studies” value in data set [6] is “stable”.

Take `COc1cc(-c2ccccc(S)c2=O)cc(OC)c1OC` [#842]: the inhibition at 20 µM in data set [1] came to 25%.

Take `COc1cc(-c2ccccc(SSc3ccccc(-c4cc(OC)c(OC)c(OC)c4)c3=O)c2=O)cc(OC)c1OC` [#843]: the inhibition at 20 µM in data set [1] came to 26.5%.

For the compound `O=c1c(S)ccccc1-c1ccccc1` [#844], in data set [1], the inhibition at 20 µM worked out at 19.1%.

Consider `O=C1Nc2ccccc2CCC1S` (stereo not shown) [#845], for which, in data set [1], the inhibition at 20 µM stood at 9%.

Take `O=C1Nc2ccccc2CCC1SC1CCc2ccccc2NC1=O` (stereo not shown) [#846]: the inhibition at 20 µM in data set [1] was found to be 0%.

On to `Cc1ccc(C(=O)Oc2cc(C(C)C)cccc2=O)cc1` [#847], for which the inhibition at 20 µM in data set [1] was 28.8%.

As to `O=C(O)COc1cc(O)c2c(=O)cc(-c3ccccc3)oc2c1` [#859], the inhibition at 20 µM in data set [1] came out at 11.3%.

For `COc1ccc(-c2cc(=O)c3c(O)cc(O)cc3o2)cc1` [#861], the inhibition at 20 µM in data set [1] is 0%.

For the compound `CC(C)c1nc(CN(C)C(=O)N[C@H](C(=O)N[C@@H](Cc2ccccc2)C[C@H](O)[C@H](Cc2ccccc2)NC(=O)OCc2cncs2)C(C)C)cs1` [Ritonavir, reference compound], in data set [2], the half-life was < 5 min.

Take `CC(=O)CC(c1ccccc1)c1c(O)c2ccccc2oc1=O` (stereo not shown) [Warfarin, reference compound]: in data set [4], the “Caco2 PappA > B” value turned out to be 9.37E−05 sec*cm^2 and the “Caco2 PappB > A” value was determined as 2.70E−04 sec*cm^2.

By inhibition is commonly meant the percentage by which the read-out fell short of the control. In general, half-life refers to the time in which the quantity being followed falls by half. What is called efflux ratio is the permeability from basolateral to apical divided by that in the opposite direction, in the common usage.

The record behind these values is patent US20240115521A1, “COMPOUNDS FOR THE TREATMENT OF MYCOBACTERIAL DISEASES” (priority 2022, published 2024).
